Measurements from ChEMBL document CHEMBL5523739, “NN1213 - A Potent, Long-Acting, and Selective Analog of Human Amylin” (J Med Chem, 2024).

What was measured:
[1] = target: Amylin receptor AMY1, CALCR/RAMP1 (Homo sapiens, UniProt P30988+O60894); assay: Agonist activity at human AMY1R complex of CTR/RAMP1 transduced in human HeLa cells by cAMP assay; assay type: functional, cell-based; settings: hela
[2] = target: Adrenomedullin receptor, AM2; CALCRL/RAMP3 (Homo sapiens, UniProt Q16602+O60896); assay: Agonist activity at human AM2R complex of CRLR/RAMP3 transduced in human HeLa cells by cAMP assay; assay type: functional, cell-based
[3] = target: T1, Calcitonin receptor (Homo sapiens, UniProt P30988); assay: Agonist activity at human CTR transduced in human HeLa cells by cAMP assay; assay type: functional, cell-based; settings: hela
T1 sequence (P30988 whole entry): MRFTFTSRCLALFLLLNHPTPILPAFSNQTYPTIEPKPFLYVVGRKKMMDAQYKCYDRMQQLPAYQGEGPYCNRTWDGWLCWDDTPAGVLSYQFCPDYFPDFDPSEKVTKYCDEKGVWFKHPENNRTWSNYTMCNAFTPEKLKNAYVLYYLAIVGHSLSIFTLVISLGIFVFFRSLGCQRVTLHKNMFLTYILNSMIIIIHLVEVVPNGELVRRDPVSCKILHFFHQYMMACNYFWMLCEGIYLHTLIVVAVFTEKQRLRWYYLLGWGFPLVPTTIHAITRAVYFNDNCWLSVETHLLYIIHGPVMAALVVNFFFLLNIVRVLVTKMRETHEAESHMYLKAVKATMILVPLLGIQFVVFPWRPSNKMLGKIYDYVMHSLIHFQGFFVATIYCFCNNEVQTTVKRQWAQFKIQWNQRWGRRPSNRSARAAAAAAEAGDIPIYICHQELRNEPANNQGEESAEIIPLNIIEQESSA

[4] = target: T2, Amylin receptor AMY3; CALCR/RAMP3 (Homo sapiens, UniProt P30988+O60896); assay: Agonist activity at human AMY3R complex of CTR/RAMP3 transduced in human HeLa cells by cAMP assay; assay type: functional, cell-based
T2 sequence (P30988 whole entry): T1 sequence (P30988 whole entry)
T2 sequence (O60896 whole entry): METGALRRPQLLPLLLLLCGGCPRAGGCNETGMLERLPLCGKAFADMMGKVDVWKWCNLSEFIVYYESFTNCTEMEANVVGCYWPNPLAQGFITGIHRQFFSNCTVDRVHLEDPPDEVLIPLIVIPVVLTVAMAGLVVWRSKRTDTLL

[5] = target: Calcitonin-gene-related peptide receptor, CALCRL/RAMP1 (Homo sapiens, UniProt O60894+Q16602); assay: Agonist activity at human CGRPR complex of CRLR/RAMP1 transduced in human HeLa cells by cAMP assay; assay type: functional, cell-based; settings: hela
[6] = target: Amylin receptor AMY2; CALCR/RAMP2 (Homo sapiens, UniProt P30988+O60895); assay: Agonist activity at human AMY2R complex of CTR/RAMP2 transduced in human HeLa cells by cAMP assay; assay type: functional, cell-based; settings: hela
[7] = species on record: Homo sapiens; assay: Selectivity ratio of EC50 for human CTR expressed in Baby hamster kidney cells to EC50 for human AMY3R complex of CTR/RAMP3 expressed in Baby hamster kidney cells; assay type: cell-based
[8] = species on record: Rattus norvegicus; assay: Selectivity ratio of EC50 for rat CTR expressed in Baby hamster kidney cells to EC50 for rat AMY3R complex of CTR/RAMP3 expressed in Baby hamster kidney cells; assay type: cell-based
[9] = species on record: Rattus norvegicus; assay: Selectivity ratio of IC50 for rat CTR expressed in Baby hamster kidney cell membrane to IC50 for rat AMY3R complex of CTR/RAMP3 expressed in Baby hamster kidney cell membrane; assay type: cell-based
[10] = species on record: Homo sapiens; assay: Selectivity ratio of IC50 for human CTR expressed in Baby hamster kidney cell membrane to IC50 for human AMY3R complex of CTR/RAMP3 expressed in Baby hamster kidney cell membrane; assay type: cell-based

Sequence of Adrenomedullin receptor, AM2; CALCRL/RAMP3 (Q16602 whole entry, one chain of several): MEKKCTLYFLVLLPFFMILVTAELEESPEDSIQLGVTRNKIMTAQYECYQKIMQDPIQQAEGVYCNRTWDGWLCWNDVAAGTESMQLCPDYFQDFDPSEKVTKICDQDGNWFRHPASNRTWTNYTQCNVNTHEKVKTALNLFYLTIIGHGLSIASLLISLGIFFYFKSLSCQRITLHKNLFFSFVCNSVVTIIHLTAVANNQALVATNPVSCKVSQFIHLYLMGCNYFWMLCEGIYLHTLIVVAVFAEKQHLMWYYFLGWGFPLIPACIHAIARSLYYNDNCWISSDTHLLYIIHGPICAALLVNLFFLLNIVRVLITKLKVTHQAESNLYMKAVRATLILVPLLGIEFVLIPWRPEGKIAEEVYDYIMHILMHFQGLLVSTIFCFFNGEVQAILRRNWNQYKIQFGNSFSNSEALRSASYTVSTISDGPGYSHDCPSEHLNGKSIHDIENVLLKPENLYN
Sequence of Amylin receptor AMY2; CALCR/RAMP2 (O60895 whole entry, one chain of several): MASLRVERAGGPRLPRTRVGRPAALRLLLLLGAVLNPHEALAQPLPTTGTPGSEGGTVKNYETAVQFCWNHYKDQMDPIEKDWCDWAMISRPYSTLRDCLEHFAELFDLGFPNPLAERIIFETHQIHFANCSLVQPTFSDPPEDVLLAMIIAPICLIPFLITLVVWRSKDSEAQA
Sequence of Amylin receptor AMY1, CALCR/RAMP1 (O60894 whole entry, one chain of several): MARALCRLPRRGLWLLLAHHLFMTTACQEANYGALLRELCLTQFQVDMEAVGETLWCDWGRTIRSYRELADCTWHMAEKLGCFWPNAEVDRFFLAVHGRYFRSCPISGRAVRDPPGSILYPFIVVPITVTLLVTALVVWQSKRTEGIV
Sequence of Calcitonin-gene-related peptide receptor, CALCRL/RAMP1 (O60894 whole entry): as the sequence (O60894 whole entry, one chain of several) above
Sequence of Calcitonin-gene-related peptide receptor, CALCRL/RAMP1 (Q16602 whole entry): as the sequence (Q16602 whole entry, one chain of several) above

pEC50 [1]	pEC50 [2]	pEC50 [3]	pEC50 [4]	pEC50 [5]	pEC50 [6]	Compound	Ratio EC50 [7]	Ratio EC50 [8]	Ratio IC50 [9]	Ratio IC50 [10]
10.73	6.12	10.64	10.33	6.25	10.37	CAGRILINTIDE				
						CC[C@H](C)[C@H](NC(=O)[C@H](C)NC(=O)CNC(=O)[C@H](Cc1ccccc1)NC(=O)[C@H](CC(N)=O)NC(=O)[C@@H]1CCCN1C(=O)[C@H](CO)NC(=O)[C@H](CO)NC(=O)[C@H](Cc1c[nH]cn1)NC(=O)[C@H](CCCNC(=N)N)NC(=O)[C@H](CC(C)C)NC(=O)[C@H](Cc1ccccc1)NC(=O)[C@H](CC(=O)O)NC(=O)[C@H](C)NC(=O)[C@H](CC(C)C)NC(=O)[C@H](CCCNC(=N)N)NC(=O)[C@H](CCC(N)=O)NC(=O)[C@@H](NC(=O)[C@H](C)NC(=O)[C@@H]1CSSC[C@H](NC(=O)[C@@H](N)CCCCN)C(=O)N[C@@H](CC(N)=O)C(=O)N[C@@H]([C@@H](C)O)C(=O)N[C@@H](C)C(=O)N[C@@H]([C@@H](C)O)C(=O)N1)[C@@H](C)O)C(=O)N1CCC[C@H]1C(=O)N[C@@H](CO)C(=O)N[C@H](CO)C(=O)N[C@H](C(=O)N[C@@H](CC(N)=O)C(=O)N[C@H](C(=O)NCC(=O)N[C@@H](CO)C(=O)N[C@@H](CC(=O)O)C(=O)N[C@H](C(=O)N[C@@H](Cc1ccc(O)cc1)C(N)=O)[C@@H](C)O)C(C)C)[C@@H](C)O	15	1340	447	55
